Data on 21 compounds can be found in patent publication US10696692B2, “Amido-benzyl sulfone and sulfoxide derivates” (Forma TM, LLC, priority 2012, dated 2020).

For assay [1], the target named is NAMPT (Homo sapiens (Human), UniProt P43490). The assay can be described thus: Assay 1: Biochemical Inhibition Assay (NAMPT enzymatic reaction, NMN quantified by mass spectrometry).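 Note: recombinant His-tagged human NAMPT preincubated with compound 15 min, then reacted 30 min at rt with 1 µM NAM, 100 µM PRPP, 2.5 mM ATP, NMN product read by RapidFire MS, normalized to L-Cystathionine internal standard.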 The following applies: read-out: Biochemical (IC50).
Sequence of NAMPT (P43490 whole entry): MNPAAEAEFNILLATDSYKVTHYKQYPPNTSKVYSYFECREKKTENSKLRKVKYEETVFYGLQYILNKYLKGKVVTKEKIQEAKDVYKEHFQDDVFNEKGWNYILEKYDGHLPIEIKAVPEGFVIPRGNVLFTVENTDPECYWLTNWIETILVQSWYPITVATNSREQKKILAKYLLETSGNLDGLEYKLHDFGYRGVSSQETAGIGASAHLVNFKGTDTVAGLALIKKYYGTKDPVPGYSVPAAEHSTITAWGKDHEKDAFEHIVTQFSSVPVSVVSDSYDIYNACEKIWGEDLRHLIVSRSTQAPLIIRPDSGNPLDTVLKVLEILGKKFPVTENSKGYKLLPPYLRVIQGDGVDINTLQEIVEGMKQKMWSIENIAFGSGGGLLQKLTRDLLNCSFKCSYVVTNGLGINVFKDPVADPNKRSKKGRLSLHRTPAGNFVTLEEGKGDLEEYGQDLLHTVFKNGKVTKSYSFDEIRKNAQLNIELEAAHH
Assay [2] deals with A2780 cells. The assay can be described thus: Assay 2: In-Vitro Cell Proliferation Assay (A2780 cells, SRB readout, 72 hours).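 Note: viable cells counted via sulforhodamine B staining, absorbance at 570 nm, after 72 h exposure at 37 °C, DMSO 0.1% as control, media-only background subtracted.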 Type of assay: cell-based. As to conditions: A2780 cells, 72 hours, SRB, read-out: Cell Proliferation (IC50).

Like-named read-outs stand apart in the source and are kept apart here.

Consider `CCCN1CCC([S+]([O-])c2ccc(CNC(=O)c3cnc4[nH]ncc4c3)cc2)CC1` (stereo not drawn) [Example 378, N-[[4-[(1-propyl-4-piperidyl)sulfinyl]phenyl]methyl)-1H-pyrazolo[3,4-b]pyridine-5-carboxamide], for which the IC50 in assay [1] worked out at 594 nM; in assay [2] (Homo sapiens, A2780, 72 h), 143 nM.

Consider `O=C(NCc1ccc(S(=O)(=O)C2CCCOC2)cc1)c1cc2cnccc2[nH]1` (stereo not drawn) [Example 266, N-[(4-tetrahydropyran-3-ylsulfonylphenyl)methyl]-1H-pyrrolo[3,2-c]pyridine-2-carboxamide], for which the IC50 turned out to be 33.1 nM in assay [1] and 18.5 nM in assay [2] (Homo sapiens, A2780, 72 h).

As to `O=C(NCc1ccc(S(=O)(=O)N2CCC[C@@H](O)C2)cc1)c1cc2ccncc2o1` [Example 151, Furo[2,3-c]pyridine-2-carboxylic acid 4-((R)-3-hydroxy-piperidine-1-sulfonyl)-benzylamide], the IC50 turned out to be 27.4 nM in assay [1] and 45 nM in assay [2] (Homo sapiens, A2780, 72 h).

Regarding `O=C(NCc1ccc(S(=O)(=O)N2CCN(C3COC3)CC2)cc1)c1cnc2[nH]ncc2c1` [Example 117, 1H-Pyrazolo[3,4-b]pyridine-5-carboxylic acid 4-(4-oxetan-3-yl-piperazine-1-sulfonyl)-benzylamide], the IC50 was found to be 229 nM in assay [1] and 44.5 nM in assay [2] (Homo sapiens, A2780, 72 h).

Consider `O=C(NCc1ccc(S(=O)(=O)N2CCC[C@H](O)C2)cc1)c1ccc2nccn2c1` [Example 54, Imidazo[1,2-a]pyridine-6-carboxylic acid 4-((S)-3-hydroxy-piperidine-1-sulfonyl)-benzylamide], for which the IC50 was 15.6 nM in assay [1] and 11.4 nM in assay [2] (Homo sapiens, A2780, 72 h).

Turning to `O=C(NCc1ccc(S(=O)(=O)N2CCCC(O)C2)cc1)c1cc2ccncc2o1` (racemic) [Example 34, Furo[2,3-c]pyridine-2-carboxylic acid 4-(3-hydroxy-piperidine-1-sulfonyl)-benzylamide], the IC50 in assay [1] turned out to be 25.7 nM; in assay [2] (Homo sapiens, A2780, 72 h), 51.9 nM.

For `CN1CCC2(C1)CN(S(=O)(=O)c1ccc(CNC(=O)c3cc4ccncc4o3)cc1)C2` [Example 197, N-[[4-[(6-methyl-2,6-diazaspiro[3.4]octan-2-yl)sulfonyl]phenyl]methyl] furo[2,3-c]pyridine-2-carboxamide], the IC50 was determined as 2.83 nM in assay [1] and 16.8 nM in assay [2] (Homo sapiens, A2780, 72 h).

With `O=C(NCc1ccc(S(=O)(=O)C2CCN(CC(F)(F)F)CC2)cc1)c1cc2ccncc2o1` [Example 67, Furo[2,3-c]pyridine-2-carboxylic acid 4-[1-(2,2,2-trifluoro-ethyl)-piperidine-4-sulfonyl]-benzylamide], the IC50 in assay [1] was 13.5 nM; in assay [2], 5.4 nM.

For `O=C(NCc1ccc(S(=O)(=O)C2CCOCC2)cc1)c1cnc2nccn2c1` [Example 199, N-[(4-tetrahydropyran-4-ylsulfonylphenyl)methyl] imidazo[1,2-a]pyrimidine-6-carboxamide], the IC50 in assay [1] was 8.65 nM; in assay [2] (Homo sapiens, A2780, 72 h), 185 nM.

For `O=C(NCc1ccc(S(=O)(=O)N2C[C@@H]3CC(F)(F)C[C@@H]3C2)cc1)c1ccc2nccn2c1` [Example 70, cis-Imidazo[1,2-a]pyridine-6-carboxylic acid 4-((3aR,6aS)-5,5-difluoro-hexahydro-cyclopenta[c]pyrrole-2-sulfonyl)-benzylamide], the IC50 in assay [1] amounted to 6.4 nM; in assay [2] (Homo sapiens, A2780, 72 h) it was 8 nM.

Regarding `O=C(NCc1ccc(S(=O)(=O)N2CC3CCC(F)(F)C3C2)cc1)c1cc2ccncc2o1` (stereo not drawn) [Example 296, N-[[4-[(4,4-difluoro-1,3,3a,5,6,6a-hexahydrocyclopenta[c]pyrrol-2-yl)sulfonyl]phenyl]methyl]furo [2,3-c]pyridine-2-carboxamide], the IC50 worked out at 9.84 nM in assay [1] and 10.1 nM in assay [2] (Homo sapiens, A2780, 72 h).

Consider `CN1CCN(C(=O)C2CCN(S(=O)(=O)c3ccc(CNC(=O)c4ccc5nccn5c4)cc3)CC2)CC1` [Example 109, Imidazo[1,2-a]pyridine-6-carboxylic acid 4-[4-(4-methyl-piperazine-1-carbonyl)-piperidine-1-sulfonyl]-benzylamide], for which the IC50 in assay [1] stood at 2.7 nM; in assay [2] (Homo sapiens, A2780, 72 h), 3.9 nM.

For the compound `O=C(NCc1ccc(S(=O)(=O)N2CC3CC(F)(F)CC3C2)cc1)c1cnc2[nH]ncc2c1` (racemic) [Example 177, cis-1H-Pyrazolo[3,4-b]pyridine-5-carboxylic acid 4-(5,5-difluoro-hexahydro-cyclopenta[c]pyrrole-2-sulfonyl)-benzylamide], the IC50 in assay [1] amounted to 20.3 nM; in assay [2] (Homo sapiens, A2780, 72 h), 105 nM.

`O=C(NCc1ccc(S(=O)(=O)C2CCN(C3COC3)CC2)cc1)c1ccc2nccn2c1` [Example 248, N-[[4-[[1-(oxetan-3-yl)-4-piperidyl]sulfonyl]phenyl]methyl]imidazo[1,2-a] pyridine-6-carboxamide]: the IC50 in assay [1] was found to be 19.4 nM; in assay [2], 5.58 nM.

With `O=C(NCc1ccc(S(=O)(=O)N2CCC(N3CCCC3)CC2)cc1)c1cc2ccncc2o1` [Example 157, Furo[2,3-c]pyridine-2-carboxylic acid 4-(4-pyrrolidin-1-yl-piperidine-1-sulfonyl)-benzylamide], the IC50 in assay [1] stood at 17.9 nM; in assay [2] (Homo sapiens, A2780, 72 h) it was 14.9 nM.

On to `O=C(NCc1ccc(S(=O)(=O)N2CCC3(CNC3)C2)cc1)c1ccc2nccn2c1` [Example 215, N-[[4-(2,6-diazaspiro[3.4]octan-6-ylsulfonyl)phenyl]methyl] imidazo[1,2-a]pyridine-6-carboxamide], for which the IC50 in assay [1] was determined as 81.5 nM; in assay [2] (Homo sapiens, A2780, 72 h), 166 nM.

For the compound `O=C(NCc1ccc(S(=O)(=O)N2CCC[C@H](O)C2)cc1)c1cc2cnccc2[nH]1` [Example 52, 1H-Pyrrolo[3,2-c]pyridine-2-carboxylic acid 4-((S)-3-hydroxy-piperidine-1-sulfonyl)-benzylamide], the IC50 was 27.6 nM in assay [1] and 18.6 nM in assay [2] (Homo sapiens, A2780, 72 h).

`NC1CCN(S(=O)(=O)c2ccc(CNC(=O)c3ccc4nccn4c3)cc2)CC1` [Example 317, N-[[4-[(4-amino-1-piperidyl)sulfonyl]phenyl]methyl]imidazo[1,2-a]pyridine-6-carboxamide]: the IC50 in assay [1] turned out to be 82.1 nM; in assay [2] (Homo sapiens, A2780, 72 h), 87.7 nM.

For `O=C(NCc1ccc(S(=O)(=O)N2CCC(O)CC2)cc1)c1cc2ccncc2o1` [Example 38, Furo[2,3-c]pyridine-2-carboxylic acid 4-(4-hydroxy-piperidine-1-sulfonyl)-benzylamide], the IC50 turned out to be 26.5 nM in assay [1] and 62.1 nM in assay [2] (Homo sapiens, A2780, 72 h).

On to `CC(C)(C)OC(=O)N1C[C@H]2CN(S(=O)(=O)c3ccc(CNC(=O)c4ccc5nccn5c4)cc3)C[C@H]21` (racemic) [Example 128, cis-3-(4-{[(Imidazo[1,2-a]pyridine-6-carbonyl)-amino]-methyl}-benzenesulfonyl)-3,6-diaza-bicyclo[3.2.0]heptane-6-carboxylic acid tert-butyl ester], for which the IC50 came to 46.9 nM in assay [1] and 11.4 nM in assay [2] (Homo sapiens, A2780, 72 h).

On to `O=C(NCc1ccc(S(=O)(=O)C2CCCN(S(=O)(=O)c3ccccc3)C2)cc1)c1cnc2[nH]ncc2c1` (stereo not drawn) [Example 345, N-[[4-[[1-(benzenesulfonyl)-3-piperidyl]sulfonyl]phenyl]methyl]-1H-pyrazolo[3,4-b]pyridine-5-carboxamide], for which the IC50 in assay [1] stood at 118 nM; in assay [2] (Homo sapiens, A2780, 72 h) it was 307 nM.
